From patent US20150105252A1, “SUBSTITUTED PYRAZOLES AS HERBICIDES” (E I DU PONT DE NEMOURS AND COMPANY, priority 2013, published 2015)

Experiments:
barnyardgrass [1] = assay: Test A preemergence; assay type: in vivo, Echinochloa crus-galli; settings: for Barnyardgrass plant response rating (0 to 100 scale, 0 is no effect, 100 is complete control): visual injury approx. 10 days after treatment
Outline: (§1)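 Ratings express plant response from 0 (no effect) to 100 (complete control), judged visually against untreated controls after approximately 10 days in the greenhouse. Preemergence applications were made as directed soil sprays onto seeded loam–sand mix, and postemergence applications onto 2–10 cm plants at one- to two-leaf stage.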

wheat = assay: Test A postemergence; assay type: in vivo, Triticum aestivum
Outline: as §1

morningglory = assay: Test C preemergence; assay type: in vivo, Ipomoea coccinea; settings: for Plant response rating (scale of 0 to 100), Morningglory: Preemergence; for Morningglory plant response rating / Plant response rating, Morningglory: preemergence; for Plant response rating, Morningglory: scale 0 to 100, 0 = no effect, 100 = complete control
Excerpt: Seeds of plant species selected from blackgrass (Alopecurus myosuroides), ryegrass, Italian (Italian ryegrass, Lolium multiflorum), wheat (winter wheat, Triticum aestivum), galium (catchweed bedstraw, Galium aparine), corn (Zea mays), crabgrass, large (large crabgrass, Digitaria sanguinalis), foxtail, giant (giant foxtail, Setaria faberii), johnsongrass (Sorghum halepense), lambsquarters (Chenopodium album), morningglory (Ipomoea coccinea), nutsedge, yellow (yellow nutsedge, Cyperus esculentus), pigweed (redroot pigweed, Amaranthus retroflexus), ragweed (common ragweed, Ambrosia elation), soybean (Glycine max), barnyardgrass (Echinochloa crus-galli), oilseed rape (Brassica napus), waterhemp (common waterhemp, Amaranthus rudis), oat, wild (wild oat, Avena fatua), kochia (Kochia scoparia), Surinam grass (Brachiaria decumbens), foxtail, green (green foxtail, Setaria viridis), goosegrass (Eleusine indica), bromegrass, downy (downy bromegrass, Bromus tectorum), nightshade (eastern black nightshade, Solanum ptycanthum), cocklebur (common cocklebur, Xanthium strumarium), cupgrass, woolly (woolly cupgrass, Eriochloa villosa), bermudagrass (Cynodon dactylon), sunflower, (common oilseed sunflower, Helianthus annuus), Russian thistle (Salsola kali), and velvetleaf (Abutilon theophrasti) were planted into a blend of loam soil and sand and treated preemergence with test chemicals formulated in a non-phytotoxic solvent mixture which included a surfactant.
At the same time, plants selected from these crop and weed species and also chickweed (common chickweed, Stellaria media), canarygrass (littleseed canarygrass, Phalaris minor), and deadnettle (henbit deadnettle, Lamium amplexicaule), were planted in pots containing Redi-Earth® planting medium (Scotts Company, 14111 Scottslawn Road, Marysville, Ohio 43041) comprising spaghnum peat moss, vermiculite, wetting agent and starter nutrients and treated with postemergence applications of test chemicals formulated in the same manner. Plants ranged in height from 2 to 18 cm (1- to 4-leaf stage) for postemergence treatments. Treated plants and controls were maintained in a greenhouse for 13 to 15 days, after which time all species were compared to controls and visually evaluated. Plant response ratings, summarized in Table C, are based on a scale of 0 to 100 where 0 is no effect and 100 is complete control. A dash (-) response means no test result.

rice = assay: Test C flooded paddy test; assay type: in vivo, Oryza sativa; settings: Flood
Outline: (§2)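 Under a constant 3 cm flood, test compounds went directly into the paddy water. Following 13 to 15 days of greenhouse growth, treated species and controls were compared by eye.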

sedge, umbrella = assay: Test C flooded paddy test; assay type: in vivo, Cyperus difformis; settings: Flood
Outline: as §2

ducksalad = assay: Test C flooded paddy test; assay type: in vivo, Heteranthera limosa; settings: Flood
Outline: as §2

barnyardgrass [2] = assay: Test C flooded paddy test; assay type: in vivo, Echinochloa crus-galli; settings: Flood
Outline: as §2

[3] = Preemergence, 500 g ai/ha, 0 to 100 scale, 0 no effect, 100 complete control
[4] = preemergence, 125 g ai/ha, visual injury, 0 to 100 scale, approx. 10 days
[5] = Postemergence, 500 g ai/ha, visual rating after approx. 10 days, 0 to 100 scale (0 no effect, 100 complete control)
[6] = postemergence, 125 g ai/ha, about 10 days, visual rating on 0 to 100 scale (0 no effect, 100 complete control)
[7] = 31 g ai/ha, scale 0 to 100 (0 no effect, 100 complete control), 13 to 15 days
[8] = 125 g ai/ha, scale 0 to 100, 0 is no effect, 100 is complete control
[9] = 31 g ai/ha, scale 0 to 100 (0 no effect, 100 complete control)
[10] = 62 g ai/ha, scale 0 to 100 (0 no effect, 100 complete control)
[11] = preemergence, 500 g ai/ha, visual injury after approx. 10 days, 0 to 100 scale (0 no effect, 100 complete control)
[12] = Postemergence, 500 g ai/ha, 0 to 100 scale (0 no effect, 100 complete control)
[13] = 31 g ai/ha, visual rating, scale 0 to 100 (0 no effect, 100 complete control), 13 to 15 days
[14] = 62 g ai/ha, scale 0 to 100 (0 no effect, 100 complete control), 13 to 15 days
[15] = 250 g ai/ha, scale 0 to 100, 0 is no effect, 100 is complete control
[16] = 125 g ai/ha, scale 0 to 100 (0 no effect, 100 complete control)

Row | Compound | Barnyardgrass plant response rating (barnyardgrass [1]; [4]) | Wheat plant response rating (wheat; [6]) | Plant response rating (scale of 0 to 100), Morningglory (morningglory; 250 g ai/ha) | Plant response rating, Rice (rice; [9]) | Plant response rating, Rice (rice; [10]) | Plant response rating, Rice (rice; 125 g ai/ha, scale 0 to 100) | Plant response rating, Rice (rice; 250 g ai/ha, scale 0 to 100) | Plant response rating, Sedge, Umbrella (sedge, umbrella; [9]) | Plant response rating, Sedge, Umbrella (sedge, umbrella; [10]) | Plant response rating, Sedge, Umbrella (sedge, umbrella; 125 g ai/ha, scale 0 to 100) | Plant response rating, Sedge, Umbrella (sedge, umbrella; 250 g ai/ha, scale 0 to 100) | Plant response rating, Ducksalad (ducksalad; [9]) | Plant response rating, Ducksalad (ducksalad; [10]) | Plant response rating, Ducksalad (ducksalad; 250 g ai/ha, scale 0 to 100) | Plant response rating, Barnyardgrass (barnyardgrass [2]; [9]) | Plant response rating, Barnyardgrass (barnyardgrass [2]; [10]) | Plant response rating, Barnyardgrass (barnyardgrass [2]; 250 g ai/ha, scale 0 to 100) | Barnyardgrass plant response rating (barnyardgrass [1]; [11]) | Morningglory plant response rating (morningglory; [13]) | Morningglory plant response rating (morningglory; [14]) | also measured
1 | CCc1cc(C(=O)NOC(C)C)nn1Cc1cccc(OC(F)(F)F)c1 [Compound 70] | 80 | 70 | 95 | 0 | 0 | 25 | 50 | 75 | 75 | 85 | 90 | 30 | 40 | 85 | 0 | 0 | 65 | – | – | – | Barnyardgrass plant response rating (barnyardgrass [1]; [3]): 100; Wheat plant response rating (wheat; [5]): 70; Morningglory plant response rating (morningglory; [7]): 0; Plant response rating, Morningglory (morningglory; 62 g ai/ha, 13 to 15 days): 25; Morningglory plant response rating (morningglory; [8]): 75; Plant response rating, Ducksalad (ducksalad; 125 g ai/ha, scale 0 to 100): 85; Plant response rating, Barnyardgrass (barnyardgrass [2]; 125 g ai/ha, scale 0 to 100): 45
2 | O=C(NC1CC1)c1cc(CCF)n(Cc2ccnc(C(F)(F)F)c2)n1 [Compound 176] | – | 10 | – | 0 | 0 | 20 | 20 | 0 | 40 | 95 | 100 | 0 | 70 | 100 | 0 | 0 | 10 | 100 | 65 | 98 | Barnyardgrass plant response rating (0 to 100 scale, 0 is no effect, 100 is complete control) (barnyardgrass [1]; preemergence, 125 g ai/ha): 80; Wheat plant response rating (wheat; [12]): 60; Plant response rating, Morningglory (morningglory; 125 g ai/ha, 13 to 15 days): 98; Morningglory plant response rating (morningglory; [15]): 100; Plant response rating, Ducksalad (ducksalad; 125 g ai/ha, scale 0 to 100): 95; Plant response rating, Barnyardgrass (barnyardgrass [2]; 125 g ai/ha, scale 0 to 100): 20
3 | Cc1cc(C(=O)NCC(F)(F)F)nn1Cc1ccnc(C(F)(F)F)c1 [Compound 74] | – | – | 100 | 0 | 15 | 15 | 15 | 0 | 0 | 0 | 90 | 0 | 0 | 90 | 0 | 15 | 15 | – | – | – | Barnyardgrass plant response rating (barnyardgrass [1]; Preemergence, 1000 g ai/ha, 0 to 100 scale, 0 no effect, 100 complete control): 100; Wheat plant response rating (wheat; Postemergence, 1000 g ai/ha, visual rating after approx. 10 days, 0 to 100 scale (0 no effect, 100 complete control)): 90; Morningglory plant response rating (morningglory; [7]): 75; Plant response rating, Morningglory (morningglory; 62 g ai/ha, 13 to 15 days): 100; Morningglory plant response rating (morningglory; [8]): 100; Plant response rating, Ducksalad (ducksalad; 125 g ai/ha, scale 0 to 100): 0; Plant response rating, Barnyardgrass (barnyardgrass [2]; 125 g ai/ha, scale 0 to 100): 15
4 | CCCNC(=O)c1cc(CCF)n(Cc2ccnc(C(F)(F)F)c2)n1 [Compound 177] | – | 50 | – | 0 | 0 | – | 0 | 50 | 75 | – | 90 | 0 | 50 | 85 | 0 | 0 | 0 | 100 | 25 | 95 | Barnyardgrass plant response rating (0 to 100 scale, 0 is no effect, 100 is complete control) (barnyardgrass [1]; preemergence, 125 g ai/ha): 100; Wheat plant response rating (wheat; [12]): 100; Plant response rating, Morningglory (morningglory; 125 g ai/ha, 13 to 15 days): 100; Morningglory plant response rating (morningglory; [15]): 100; Plant response rating, Rice (rice; [16]): 0; Plant response rating, Sedge, Umbrella (sedge, umbrella; [16]): 85; Plant response rating, Ducksalad (ducksalad; [16]): 75; Plant response rating, Barnyardgrass (barnyardgrass [2]; [16]): 0
5 | CCCc1cc(C(=O)NC2CC2)nn1Cc1cc(C(F)(F)F)nn1C [Compound 202] | – | – | – | – | – | – | – | – | – | – | – | – | – | – | – | – | – | 100 | 90 | 100 | Barnyardgrass plant response rating (0 to 100 scale, 0 is no effect, 100 is complete control) (barnyardgrass [1]; preemergence, 125 g ai/ha): 90; Wheat plant response rating (wheat; Postemergence, 125 g ai/ha, 0 to 100 scale, 0 no effect, 100 complete control): 60; Wheat plant response rating (wheat; [12]): 80; Plant response rating, Morningglory (morningglory; 125 g ai/ha, 13 to 15 days): 100; Morningglory plant response rating (morningglory; [15]): 100
6 | CCc1cc(C(=O)NCC(F)(F)F)nn1Cc1nc(C(F)(F)F)nn1C [Compound 107] | 100 | 30 | 100 | – | – | – | – | – | – | – | – | – | – | – | – | – | – | 100 | 90 | 100 | Wheat plant response rating (wheat; [5]): 80; Morningglory plant response rating (morningglory; [8]): 100
7 | CCONC(=O)c1cc(CC)n(Cc2ccnc(C(F)(F)F)c2)n1 [Compound 77] | 90 | 40 | – | 0 | 0 | 0 | 0 | 0 | 50 | 60 | 75 | 20 | 40 | 75 | 0 | 0 | 20 | – | – | – | Barnyardgrass plant response rating (barnyardgrass [1]; [3]): 100; Wheat plant response rating (wheat; [5]): 50; Plant response rating, Ducksalad (ducksalad; 125 g ai/ha, scale 0 to 100): 70; Plant response rating, Barnyardgrass (barnyardgrass [2]; 125 g ai/ha, scale 0 to 100): 20
8 | CCONC(=O)c1cc(CC)n(Cc2ccnc(OC(F)F)c2)n1 [Compound 131] | 100 | 80 | 100 | – | – | – | – | – | – | – | – | – | – | – | – | – | – | 100 | 40 | 100 | Wheat plant response rating (wheat; [12]): 90; Plant response rating, Morningglory (morningglory; 125 g ai/ha, 13 to 15 days): 100
